Results as given in patent publication US11000033B2, “Ketone or oxime compound, and herbicide” (NISSAN CHEMICAL CORPORATION, priority 2014, dated 2021).

How the values were obtained:
Assay type in all cases: in vivo
[1] = tested on: directly sowed rice plant; experiment: Test Example 3: effect on crop by foliage application, Wagner pot (symbol b); details: application herbicide amount 320 g/ha
In short: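 Alluvial soil in a 1/10000-are Wagner pot was flooded to a water depth of 0.1–0.5 cm. Echinochloa crus-galli var. crus-galli, Leptochloa chinensis, Cyperus difformis and rice were sown into it and grown in a greenhouse at 25–30 °C.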

[2] = tested on: Scirpus juncoides; experiment: Test Example 1: herbicidal activity, application before weed generation in submerged conditions (symbol B); details: application herbicide amount 320 g/ha
In short: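 Steps: alluvial soil flooded to 4 cm; weed seeds sown together; rice seedlings (2.5 leaf) transplanted; diluted emulsion applied to water surface the same day as sowing; plants grown at 25–30 °C in greenhouse; herbicidal effect rated on a 0–5 scale at 3 weeks.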

[3] = tested on: Alopecurus myosuroides; experiment: Test Example 5: herbicidal effect by foliage application, plastic box (symbol J); details: 320 g/ha, 3 weeks after application
In short: (§1)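 Greenhouse foliar test: seedlings at 14 days, grown 25° C. to 30° C. in sterilized diluvial soil; compound applied as an aqueous dilution of an emulsion; response read 3 weeks after spraying.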

[4] = tested on: rice; experiment: Test Example 4: effect on crop by soil treatment (symbol b); details: application herbicide amount 320 g/ha
In short: (§2)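 Plants grew in a 25° C. to 30° C. greenhouse after spot-sowing of seeds, including beet, rapeseed, wheat and rice, into sterilized diluvial soil under roughly 1.5 cm of cover soil.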

[5] = tested on: Digitaria ciliaris; experiment: Test Example 5: herbicidal effect by foliage application, plastic box (symbol F); details: 320 g/ha, 3 weeks after application
In short: as §1

[6] = tested on: Apera spica-venti; experiment: Test Example 5: herbicidal effect by foliage application, plastic box (symbol L); details: 320 g/ha, 3 weeks after application
In short: as §1

[7] = tested on: Alopecurus myosuroides; experiment: Test Example 4: herbicidal effect by soil treatment (symbol J); details: application herbicide amount 320 g/ha
In short: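 Seeds were sown in sterilized diluvial soil, covered with about 1.5 cm of soil, and the soil surface was sprayed with a water-diluted emulsion of the compound at a predetermined rate. Plants grew in a greenhouse at 25° C. to 30° C.; effects were scored visually 3 weeks after application.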

[8] = tested on: beet; experiment: Test Example 4: effect on crop by soil treatment (symbol f); details: application herbicide amount 320 g/ha
In short: as §2

[9] = tested on: rapeseed; experiment: Test Example 5: effect on crop by foliage application, plastic box (symbol g); details: 320 g/ha, 3 weeks after application
In short: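 Foliage-application test plants come from spot sowing in sterilized diluvial soil under a soil layer of about 1.5 cm, grown at 25° C. to 30° C. in a greenhouse.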

[10] = tested on: Veronica persica; experiment: Test Example 5: herbicidal effect by foliage application, plastic box (symbol R); details: 320 g/ha, 3 weeks after application
In short: as §1

[11] = tested on: Chenopodium album; experiment: Test Example 5: herbicidal effect by foliage application, plastic box (symbol O); details: 320 g/ha, 3 weeks after application
In short: as §1

[12] = tested on: Echinochloa crus-galli var. crus-galli; experiment: Test Example 5: herbicidal effect by foliage application, plastic box (symbol H); details: 320 g/ha, 3 weeks after application
In short: as §1

[13] = tested on: Leptochloa chinensis; experiment: Test Example 3: herbicidal effect by foliage application, Wagner pot (symbol D); details: application herbicide amount 320 g/ha
In short: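 In a shallow-flooded alluvial soil system held at 25–30 °C, plants including rice grew for 14 days and were then sprayed over the foliage with emulsion diluted to a fixed herbicide amount. Visual rating followed at 3 weeks.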

[14] = tested on: soybean; experiment: Test Example 4: effect on crop by soil treatment (symbol d); details: application herbicide amount 320 g/ha
In short: as §2

| Compound | effect on crop b (directly sowed rice plant), grade 0-5 [1] | Herbicidal effect grade, B: Scirpus juncoides [2] | J: Alopecurus myosuroides, herbicidal effect grade [3] | b: directly sowed rice plant, effect on crop grade [4] | F: Digitaria ciliaris, herbicidal effect grade [5] | L: Apera spica-venti, herbicidal effect grade [6] | J: Alopecurus myosuroides, herbicidal effect grade [7] | f: beet, effect on crop grade [8] | g: rapeseed, effect on crop grade [9] | R: Veronica persica, herbicidal effect grade [10] | O: Chenopodium album, herbicidal effect grade [11] | H: Echinochloa crus-galli var. crus-galli, herbicidal effect grade [12] | herbicidal effect on D (Leptochloa chinensis), grade 0-5 [13] | d: soybean, effect on crop grade [14] | b (directly sowed rice plant) effect on crop grade [4] | J (Alopecurus myosuroides) herbicidal effect grade [7] | f (beet) effect on crop grade [8] | d (soybean) effect on crop grade [14] |
| --- | --- | --- | --- | --- | --- | --- | --- | --- | --- | --- | --- | --- | --- | --- | --- | --- | --- | --- |
| CON=CC1CC(O)=C(c2c(C)cc(C)cc2C)C1=O (mixture of isomers) [3-001] | 2 (Herbicidal ratio of 20% or higher and lower than 40%) | 0 (Herbicidal ratio of 5% or lower (almost no effect)) | 3 (Herbicidal ratio of 40% or higher and lower than 70%) | 2 (Herbicidal ratio of 20% or higher and lower than 40%) | 4 (Herbicidal ratio of 70% or higher and lower than 90%) | 3 (Herbicidal ratio of 40% or higher and lower than 70%) | 1 (Herbicidal ratio of 5% or higher and lower than 20%) | 0 (Herbicidal ratio of 5% or lower (almost no effect)) | 0 (Herbicidal ratio of 5% or lower (almost no effect)) | 0 (Herbicidal ratio of 5% or lower (almost no effect)) | 0 (Herbicidal ratio of 5% or lower (almost no effect)) | 4 (Herbicidal ratio of 70% or higher and lower than 90%) | 2 (Herbicidal ratio of 20% or higher and lower than 40%) | 0 (Herbicidal ratio of 5% or lower (almost no effect)) |  |  |  |  |
| CON=C(C)CC1CC(OCCSC)=C(c2c(C)cc(C)cc2C)C1=O (stereo not shown) [1-011] | 0 (Herbicidal ratio of 5% or lower (almost no effect)) | 0 (Herbicidal ratio of 5% or lower (almost no effect)) | 4 (Herbicidal ratio of 70% or higher and lower than 90%) |  | 3 (Herbicidal ratio of 40% or higher and lower than 70%) | 5 (Herbicidal ratio of 90% or more (almost completely withered)) |  |  | 4 (Herbicidal ratio of 70% or higher and lower than 90%) | 0 (Herbicidal ratio of 5% or lower (almost no effect)) | 0 (Herbicidal ratio of 5% or lower (almost no effect)) | 0 (Herbicidal ratio of 5% or lower (almost no effect)) | 5 (Herbicidal ratio of 90% or more (almost completely withered)) |  | 0 (Herbicidal ratio of 5% or lower (almost no effect)) | 0 (Herbicidal ratio of 5% or lower (almost no effect)) | 0 (Herbicidal ratio of 5% or lower (almost no effect)) | 0 (Herbicidal ratio of 5% or lower (almost no effect)) |
| CCCC(=O)C(C(=O)OC)C1CC(O)=C(c2c(C)cc(C)cc2C)C1=O (stereo not shown) [2-020] | 2 (Herbicidal ratio of 20% or higher and lower than 40%) | 0 (Herbicidal ratio of 5% or lower (almost no effect)) | 4 (Herbicidal ratio of 70% or higher and lower than 90%) | 5 (Herbicidal ratio of 90% or more (almost completely withered)) | 3 (Herbicidal ratio of 40% or higher and lower than 70%) | 0 (Herbicidal ratio of 5% or lower (almost no effect)) | 0 (Herbicidal ratio of 5% or lower (almost no effect)) | 0 (Herbicidal ratio of 5% or lower (almost no effect)) | 0 (Herbicidal ratio of 5% or lower (almost no effect)) | 0 (Herbicidal ratio of 5% or lower (almost no effect)) | 0 (Herbicidal ratio of 5% or lower (almost no effect)) | 4 (Herbicidal ratio of 70% or higher and lower than 90%) | 2 (Herbicidal ratio of 20% or higher and lower than 40%) | 0 (Herbicidal ratio of 5% or lower (almost no effect)) |  |  |  |  |
| Cc1cc(C)c(C2=C(O)CC(CC(=O)C(C)(C)C)C2=O)c(C)c1 (stereo not shown) [2-022] | 5 (Herbicidal ratio of 90% or more (almost completely withered)) | 0 (Herbicidal ratio of 5% or lower (almost no effect)) | 3 (Herbicidal ratio of 40% or higher and lower than 70%) | 4 (Herbicidal ratio of 70% or higher and lower than 90%) | 0 (Herbicidal ratio of 5% or lower (almost no effect)) | 2 (Herbicidal ratio of 20% or higher and lower than 40%) | 0 (Herbicidal ratio of 5% or lower (almost no effect)) | 0 (Herbicidal ratio of 5% or lower (almost no effect)) | 1 (Herbicidal ratio of 5% or higher and lower than 20%) | 0 (Herbicidal ratio of 5% or lower (almost no effect)) | 0 (Herbicidal ratio of 5% or lower (almost no effect)) | 1 (Herbicidal ratio of 5% or higher and lower than 20%) | 4 (Herbicidal ratio of 70% or higher and lower than 90%) | 0 (Herbicidal ratio of 5% or lower (almost no effect)) |  |  |  |  |
| CON=C(C)CC1CC(OC(=O)OC)=C(c2c(C)cc(C)cc2C)C1=O (stereo not shown) [1-014] | 5 (Herbicidal ratio of 90% or more (almost completely withered)) | 5 (Herbicidal ratio of 90% or more (almost completely withered)) | 5 (Herbicidal ratio of 90% or more (almost completely withered)) |  | 5 (Herbicidal ratio of 90% or more (almost completely withered)) | 5 (Herbicidal ratio of 90% or more (almost completely withered)) |  |  | 4 (Herbicidal ratio of 70% or higher and lower than 90%) | 3 (Herbicidal ratio of 40% or higher and lower than 70%) | 3 (Herbicidal ratio of 40% or higher and lower than 70%) | 5 (Herbicidal ratio of 90% or more (almost completely withered)) | 5 (Herbicidal ratio of 90% or more (almost completely withered)) |  | 4 (Herbicidal ratio of 70% or higher and lower than 90%) | 5 (Herbicidal ratio of 90% or more (almost completely withered)) |  | 4 (Herbicidal ratio of 70% or higher and lower than 90%) |
| Cc1cc(C)c(C2=C(O)CC(CC(=O)C3CC3)C2=O)c(C)c1 (stereo not shown) [2-017] | 5 (Herbicidal ratio of 90% or more (almost completely withered)) | 5 (Herbicidal ratio of 90% or more (almost completely withered)) | 4 (Herbicidal ratio of 70% or higher and lower than 90%) | 5 (Herbicidal ratio of 90% or more (almost completely withered)) | 5 (Herbicidal ratio of 90% or more (almost completely withered)) | 3 (Herbicidal ratio of 40% or higher and lower than 70%) | 3 (Herbicidal ratio of 40% or higher and lower than 70%) | 0 (Herbicidal ratio of 5% or lower (almost no effect)) | 4 (Herbicidal ratio of 70% or higher and lower than 90%) | 0 (Herbicidal ratio of 5% or lower (almost no effect)) |  | 5 (Herbicidal ratio of 90% or more (almost completely withered)) | 5 (Herbicidal ratio of 90% or more (almost completely withered)) | 0 (Herbicidal ratio of 5% or lower (almost no effect)) |  |  |  |  |
